Test results: patent US9328106B2, “Cyclic ether pyrazol-4-yl-heterocyclyl-carboxamide compounds and methods of use” (Genentech, Inc., priority 2012, dated 2016)

Assays:
PIM1 = PIM1 (Homo sapiens (Human), UniProt P11309); test: biochemical; format: biochemical; details: 20 pM PIM1, 1 μM FAM-peptide, 10 μM ATP, 90 minutes at room temperature; read-out: PIM1 LC3K (KI)
Method: Reaction Buffer contained 10 mM HEPES, pH 7.2, 10 mM MgCl2, 0.01% Tween 20, 2 mM DTT. Termination Buffer contained 190 mM HEPES, pH 7.2, 0.015% Brij-35, 0.2% Coating Reagent 3 (Caliper Life Sciences, Hopkinton, Mass.), 20 mM EDTA. Separation Buffer contained 100 mM HEPES, pH 7.2, 0.015% Brij-35, 0.1% Coating Reagent 3, 1:200 Coating Reagent 8 (Caliper Life Sciences, Hopkinton, Mass.), 10 mM EDTA and 5% DMSO.
PIM reactions were carried out in a final volume of 10 μL per well in a 384-well plate. […] After 90 minutes of incubation at room temperature, the phosphorylation reaction was stopped by the addition of 10 μL Termination Buffer. The product and substrate in each independent reaction were separated on a 12-sipper microfluidic chip (Caliper Life Sciences, Hopkinton, Mass.) run on a Caliper LC3000® (Caliper Life Sciences, Hopkinton, Mass.). The separation of product and substrate was optimized by choosing voltages and pressure using Caliper's Optimizer software (Hopkinton, Mass.). The separation conditions used a downstream voltage of −500V, an upstream voltage of −2150V, and a screening pressure of −1.2 psi. […] Substrate conversion was calculated from the electropherogram using HTS Well Analyzer software (Caliper Life Sciences, Hopkinton, Mass.). Ki values for the test compound were calculated.

hERG potassium channel = hERG potassium channel (Homo sapiens (Human), UniProt Q12809); test: hERG assay (IC50), automated PatchXpress in hERG-expressing HEK-293 cells; format: cell-based; details: 0.01-100 μM, 5 minutes after adding test article; for IC20 at 5 min: human, HEK-293 cells that express hERG
Sequence of hERG potassium channel (Q12809 whole entry): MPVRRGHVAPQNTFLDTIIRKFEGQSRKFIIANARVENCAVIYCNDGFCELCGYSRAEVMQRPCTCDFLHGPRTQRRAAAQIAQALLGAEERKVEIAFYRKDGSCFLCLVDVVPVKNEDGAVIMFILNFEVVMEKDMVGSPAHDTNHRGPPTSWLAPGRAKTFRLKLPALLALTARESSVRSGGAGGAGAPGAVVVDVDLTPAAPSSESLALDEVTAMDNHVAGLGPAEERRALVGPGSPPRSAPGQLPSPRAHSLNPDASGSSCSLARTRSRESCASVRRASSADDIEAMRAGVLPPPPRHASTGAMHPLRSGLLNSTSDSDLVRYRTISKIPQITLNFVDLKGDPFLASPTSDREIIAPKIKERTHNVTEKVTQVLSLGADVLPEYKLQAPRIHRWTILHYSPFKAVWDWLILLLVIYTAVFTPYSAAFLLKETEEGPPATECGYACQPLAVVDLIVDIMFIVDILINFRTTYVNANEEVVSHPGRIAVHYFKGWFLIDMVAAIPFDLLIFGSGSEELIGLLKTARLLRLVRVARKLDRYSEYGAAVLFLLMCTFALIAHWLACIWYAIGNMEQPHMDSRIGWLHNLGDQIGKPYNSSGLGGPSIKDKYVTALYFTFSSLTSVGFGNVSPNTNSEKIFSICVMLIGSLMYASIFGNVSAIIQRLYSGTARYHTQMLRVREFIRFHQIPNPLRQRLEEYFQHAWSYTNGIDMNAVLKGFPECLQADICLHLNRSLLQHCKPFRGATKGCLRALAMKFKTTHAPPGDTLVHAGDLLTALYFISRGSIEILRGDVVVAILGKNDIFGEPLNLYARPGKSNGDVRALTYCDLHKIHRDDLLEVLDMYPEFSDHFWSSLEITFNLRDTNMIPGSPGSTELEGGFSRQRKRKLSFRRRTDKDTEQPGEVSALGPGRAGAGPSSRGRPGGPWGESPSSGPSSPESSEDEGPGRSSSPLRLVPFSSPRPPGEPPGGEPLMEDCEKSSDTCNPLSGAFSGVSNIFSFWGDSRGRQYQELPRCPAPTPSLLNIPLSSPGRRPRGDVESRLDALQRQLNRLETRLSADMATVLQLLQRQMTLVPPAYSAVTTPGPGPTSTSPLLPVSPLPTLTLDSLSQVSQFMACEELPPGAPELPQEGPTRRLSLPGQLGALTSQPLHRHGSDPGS
Method: The in vitro potential for hERG potassium channel current inhibition was assessed according to the study site standard procedures (ChanTest, Cleveland, Ohio). In brief, hERG inhibition (% max) was determined in hERG-expressing HEK-293 cells (n=2/concentration) using the automated PatchXpress 7000A system (Molecular Devices, Sunnyvale, Calif.) for 5 minutes after adding the test article.

BaF3 PIM1 cells = test: In vitro cell proliferation, BaF3 transfected with PIM1; format: cell-based, murine; details: Mus musculus, BaF3, read-out: Prolif BaF3 PIM1 (IC50), BaF3 PIM1 cells, incubated overnight, CELL TITER GLO;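 also: murine IL-3-dependent pro-B BaF3 cells transfected with PIM1, compound exposure overnight at 37 °C under 5% CO2, viability read as luminescence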
BaF3 parental cells = test: In vitro cell proliferation, BaF3 parental line + IL3; format: cell-based, murine; details: Mus musculus, BaF3, BaF3 parental, mIL-3, incubated overnight, CELL TITER GLO; read-out: Prolif BaF3 IL3 (IC50);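 also: BaF3 parental cells are murine IL-3 dependent pro-B cells grown with 2 ng/mL mIL-3, 384-well format, viability read by luminescence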
[1] = test system: MM1.S (multiple myeloma) cells; test: In vitro cell proliferation, MM1.S multiple myeloma cells; format: cell-based; details: Homo sapiens, MM1.S, 72 h, MM1.S cells, 72 hours, CELL TITER GLO; read-out: Prolif MM1S ATP (EC50);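 also: cells cultured in RPMI with 10% FBS and 2 mM L-Glutamine, seeded in 384-well plates, exposed to compound, cell viability measured by luminescence after CellTiter-Glo addition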
Method: BaF3 parental line was obtained from the DSMZ repository. […] Media for BaF3 parental line contained RPMI, 10% FBS, 2 mM L-Glutamine, 2 ng/mL mIL-3. Media for BaF3 PIM1 & 2 lines contained RPMI, 10% FBS, 2 mM L-Glutamine, 250 μg/mL. Media for MM1.S (multiple myeloma cells) line contained RPMI, 10% FBS, 2 mM L-Glutamine.
BaF3, a murine interleukin-3 dependent pro-B cell line, parental cells, BaF3 PIM1 cells, BaF3 PIM2 cells, and MM1.S (multiple myeloma) cells were seeded at 2 k/well, 5 k/well, 5 k/well, and 10 k/well respectively, in a 384-well plate, at 45 μL/well. Test compound was added at 5 μL/well. BaF3 cells (parental and transfected) were incubated overnight, while MM1.S cells were incubated for 72 hours at 37° C., 5% CO2. CELL TITER GLO® Reagent (Promega) was added at 50 μL/well, the plates were incubated for 30 minutes, and their luminescence read on an HT Analyst. IC50/EC50 values for the test compound were calculated.

Sequence of PIM1 (P11309 whole entry): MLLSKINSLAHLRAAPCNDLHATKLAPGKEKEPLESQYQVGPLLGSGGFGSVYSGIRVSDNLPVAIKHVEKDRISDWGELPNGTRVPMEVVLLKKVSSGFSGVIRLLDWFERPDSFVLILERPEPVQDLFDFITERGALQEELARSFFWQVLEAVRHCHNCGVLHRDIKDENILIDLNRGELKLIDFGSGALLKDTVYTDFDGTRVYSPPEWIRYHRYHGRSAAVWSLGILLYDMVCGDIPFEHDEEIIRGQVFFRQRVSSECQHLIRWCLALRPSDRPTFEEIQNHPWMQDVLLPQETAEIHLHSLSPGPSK

Structure (SMILES): Cn1ncc(NC(=O)c2nc(-c3c(F)cccc3F)sc2N)c1[C@@H]1CC[C@@H](N)[C@H](F)CO1 [Example 177, 5-Amino-N-[5-[(2S,5R,6S)-5-amino-6-fluoro-oxepan-2-yl]-1-methyl-pyrazol-4-yl]-2-(2,6-difluorophenyl)thiazole-4-carboxamide]
- Ki (PIM1): 0.00342 nM
- IC50 (hERG potassium channel): 16000 nM
- IC20 at 5 min (hERG potassium channel): 3900 nM

Structure (SMILES): Cn1ncc(NC(=O)c2nc(-c3c(F)cccc3F)sc2N)c1C1CC[C@@H](N)[C@@H](F)CO1 (stereo partly drawn) [Example 129, 5-amino-N-(5-((5R,6R)-5-amino-6-fluorooxepan-2-yl)-1-methyl-1H-pyrazol-4-yl)-2-(2,6-difluorophenyl)thiazole-4-carboxamide]
- IC50 (BaF3 PIM1 cells): 24.7 nM
- Ki (PIM1): 0.006 nM
- IC50 (BaF3 parental cells): 6900 nM
- EC50 [1]: 109 nM

Structure (SMILES): Cn1ncc(NC(=O)c2csc(-c3cccnc3)n2)c1[C@@H]1CC[C@@H](N)[C@H](F)CO1 [Example 383, N-[5-[(2S,5R,6S)-5-amino-6-fluoro-oxepan-2-yl]-1-methyl-pyrazol-4-yl]-2-(3-pyridyl)thiazole-4-carboxamide]
- IC50 (BaF3 PIM1 cells): 823 nM
- Ki (PIM1): 0.991 nM
- IC50 (BaF3 parental cells): 20800 nM
- EC50 [1]: 5700 nM

Structure (SMILES): CC[C@@H]1CC(N)CC[C@H](c2c(NC(=O)c3nc(-c4c(F)cccc4F)sc3N)cnn2C)O1 (stereo partly drawn) [Example 112, 5-amino-N-(5-((2R,7R)-5-amino-7-ethyloxepan-2-yl)-1-methyl-1H-pyrazol-4-yl)-2-(2,6-difluorophenyl)thiazole-4-carboxamide]
- IC50 (BaF3 PIM1 cells): 2100 nM
- Ki (PIM1): 0.502 nM
- IC50 (BaF3 parental cells): 6900 nM
- EC50 [1]: 8500 nM

Structure (SMILES): Cn1ncc(NC(=O)c2csc(-c3ccccn3)n2)c1[C@@H]1CC[C@@H](N)[C@H](F)CO1 [Example 326, N-(5-((2S,5R,6S)-5-amino-6-fluorooxepan-2-yl)-1-methyl-1H-pyrazol-4-yl)-2-(pyridin-2-yl)thiazole-4-carboxamide]
- IC50 (BaF3 PIM1 cells): 132 nM
- Ki (PIM1): 0.031 nM
- IC50 (BaF3 parental cells): 12400 nM
- EC50 [1]: 436 nM

Structure (SMILES): Cn1ncc(NC(=O)c2nc(-c3ccccc3)sc2N)c1[C@@H]1CC[C@@H](N)[C@H](F)CO1 [Example 320, 5-amino-N-(5-((2S,5R,6S)-5-amino-6-fluorooxepan-2-yl)-1-methyl-1H-pyrazol-4-yl)-2-phenylthiazole-4-carboxamide]
- IC50 (BaF3 PIM1 cells): 24.4 nM
- Ki (PIM1): 0.036 nM
- IC50 (BaF3 parental cells): > 25000 nM
- EC50 [1]: 187 nM

Structure (SMILES): Cn1ncc(NC(=O)c2ccc(F)c(-c3ccc(Cl)cc3F)n2)c1[C@@H]1CC[C@@H](N)[C@H](F)CO1 [Example 359, N-(5-((2S,5R,6S)-5-amino-6-fluorooxepan-2-yl)-1-methyl-1H-pyrazol-4-yl)-6-(4-chloro-2-fluorophenyl)-5-fluoropicolinamide]
- IC50 (BaF3 PIM1 cells): 262 nM
- Ki (PIM1): 0.007 nM
- IC50 (BaF3 parental cells): 11600 nM
- EC50 [1]: 5800 nM

Structure (SMILES): CN(C)C(=O)c1cc(F)c(-c2nc(C(=O)Nc3cnn(C)c3[C@@H]3CC[C@@H](N)[C@H](F)CO3)cs2)c(F)c1 [Example 354, N-(5-((2S,5R,6S)-5-amino-6-fluorooxepan-2-yl)-1-methyl-1H-pyrazol-4-yl)-2-(4-(dimethylcarbamoyl)-2,6-difluorophenyl)thiazole-4-carboxamide]
- IC50 (BaF3 PIM1 cells): 3400 nM
- Ki (PIM1): 0.083 nM
- IC50 (BaF3 parental cells): 7300 nM
- EC50 [1]: 5100 nM

Structure (SMILES): CC(C)Oc1ncccc1-c1nc(C(=O)Nc2cnn(C)c2[C@@H]2CC[C@@H](N)[C@H](F)CO2)cs1 [Example 384, N-[5-[(2S,5R,6S)-5-amino-6-fluoro-oxepan-2-yl]-1-methyl-pyrazol-4-yl]-2-(2-isopropoxy-3-pyridyl)thiazole-4-carboxamide]
- IC50 (BaF3 PIM1 cells): 5600 nM
- Ki (PIM1): 9.7 nM
- IC50 (BaF3 parental cells): 7200 nM
- EC50 [1]: 4400 nM

Structure (SMILES): Cn1ncc(NC(=O)c2nc(-c3c(F)cccc3F)sc2N)c1C1CC[C@H](N)[C@H](F)CO1 (stereo partly drawn) [Example 131, 5-amino-N-(5-((5S,6S)-5-amino-6-fluorooxepan-2-yl)-1-methyl-1H-pyrazol-4-yl)-2-(2,6-difluorophenyl)thiazole-4-carboxamide]
- IC50 (BaF3 PIM1 cells): 1500 nM
- Ki (PIM1): 0.27 nM
- IC50 (BaF3 parental cells): 6800 nM
- EC50 [1]: 10000 nM

Structure (SMILES): Cn1ncc(NC(=O)c2nc(-c3ccccc3F)sc2N)c1[C@@H]1CC[C@@H](N)[C@H](F)CO1 [Example 317, 5-amino-N-(5-((2S,5R,6S)-5-amino-6-fluorooxepan-2-yl)-1-methyl-1H-pyrazol-4-yl)-2-(2-fluorophenyl)thiazole-4-carboxamide]
- IC50 (BaF3 PIM1 cells): 15.2 nM
- Ki (PIM1): 0.00509 nM
- IC50 (BaF3 parental cells): 7900 nM
- EC50 [1]: 34.5 nM

Structure (SMILES): COC1(c2cc(F)c(-c3nc(C(=O)Nc4cnn(C)c4[C@@H]4CC[C@@H](N)[C@H](F)CO4)cs3)c(F)c2)COC1 [Example 339, N-(5-((2S,5R,6S)-5-amino-6-fluorooxepan-2-yl)-1-methyl-1H-pyrazol-4-yl)-2-(2,6-difluoro-4-(3-methoxyoxetan-3-yl)phenyl)thiazole-4-carboxamide]
- IC50 (BaF3 PIM1 cells): 52.2 nM
- Ki (PIM1): 0.014 nM
- IC50 (BaF3 parental cells): > 25000 nM
- EC50 [1]: 1900 nM

Structure (SMILES): C[C@@H]1C[C@@H](N)CC[C@H](c2c(NC(=O)c3nc(-c4c(F)cccc4F)sc3N)cnn2C)O1 [Example 121, 5-amino-N-(5-((2R,5S,7R)-5-amino-7-methyloxepan-2-yl)-1-methyl-1H-pyrazol-4-yl)-2-(2,6-difluorophenyl)thiazole-4-carboxamide]
- IC50 (BaF3 PIM1 cells): 13.6 nM
- Ki (PIM1): 0.003 nM
- IC50 (BaF3 parental cells): 3500 nM
- EC50 [1]: 11.9 nM

Structure (SMILES): COc1ccc(F)c(-c2nc(C(=O)Nc3cnn(C)c3[C@@H]3CC[C@@H](N)[C@H](OC)CO3)cs2)c1F [Example 368, N-(5-((2S,5R,6S)-5-amino-6-methoxyoxepan-2-yl)-1-methyl-1H-pyrazol-4-yl)-2-(2,6-difluoro-3-methoxyphenyl)thiazole-4-carboxamide]
- IC50 (BaF3 PIM1 cells): 100 nM
- Ki (PIM1): 0.03 nM
- IC50 (BaF3 parental cells): 1900 nM
- EC50 [1]: 2400 nM

Structure (SMILES): Cn1ncc(NC(=O)c2csc(-c3c(F)cccc3F)n2)c1[C@@H]1CC[C@@H](N)[C@@H](F)CO1 [Example 319, N-(5-((2S,5R,6R)-5-amino-6-fluorooxepan-2-yl)-1-methyl-1H-pyrazol-4-yl)-2-(2,6-difluorophenyl)thiazole-4-carboxamide]
- IC50 (BaF3 PIM1 cells): 129 nM
- Ki (PIM1): 0.038 nM
- IC50 (BaF3 parental cells): 7800 nM
- EC50 [1]: 875 nM

Structure (SMILES): Cn1ncc(NC(=O)c2nc(-c3c(F)cccc3F)sc2N)c1N1CC[C@@H](N)[C@H](F)CC1 [No. 139 of US 2013/0079321, 5-amino-N-(5-((4R,5R)-4-amino-5-fluoroazepan-1-yl)-1-methyl-1H-pyrazol-4-yl)-2-(2,6-difluorophenyl)thiazole-4-carboxamide, reference compound]
- IC20 at 5 min (hERG potassium channel): 700 nM

Structure (SMILES): Cn1ncc(NC(=O)c2csc(-c3c(F)ccc(C(F)F)c3F)n2)c1[C@@H]1CC[C@@H](N)[C@H](F)CO1 [Example 377, N-[5-[(2S,5R,6S)-5-amino-6-fluoro-oxepan-2-yl]-1-methyl-pyrazol-4-yl]-2-[3-(difluoromethyl)-2,6-difluoro-phenyl]thiazole-4-carboxamide]
- IC50 (BaF3 PIM1 cells): 68.6 nM
- Ki (PIM1): 0.031 nM
- IC50 (BaF3 parental cells): 9900 nM
- EC50 [1]: 4200 nM

Structure (SMILES): CO[C@H]1CO[C@H](c2c(NC(=O)c3nc(-c4c(F)cccc4F)sc3N)cnn2C)CC[C@H]1N [Example 154, 5-Amino-N-[5-[(2S,5R,6R)-5-amino-6-methoxy-oxepan-2-yl]-1-methyl-pyrazol-4-yl]-2-(2,6-difluorophenyl)thiazole-4-carboxamide]
- Ki (PIM1): 0.008 nM
- IC50 (hERG potassium channel): 9100 nM
- IC20 at 5 min (hERG potassium channel): 1600 nM

Structure (SMILES): CO[C@@H]1CO[C@H](c2c(NC(=O)c3csc(-c4c(F)cc(C)cc4F)n3)cnn2C)CC[C@H]1N [Example 355, N-(5-((2S,5R,6S)-5-amino-6-methoxyoxepan-2-yl)-1-methyl-1H-pyrazol-4-yl)-2-(2,6-difluoro-4-methylphenyl)thiazole-4-carboxamide]
- IC50 (BaF3 PIM1 cells): 53.5 nM
- Ki (PIM1): 0.035 nM
- IC50 (BaF3 parental cells): 3900 nM
- EC50 [1]: 1600 nM
